Several values for one entry are separate records, joined by “and”; a condition that tells them apart may be missing. Equal values may be shown once.
Legend:
hippocampal neurons = assay: Spinogenesis in mRFP-β-actin transfected dissociated hippocampal neurons; type: cell-based, rat; conditions: 5 days
Procedure: (§1) Hippocampal neurons (2×10^5 cells per square cm) were cultured from P1 Sprague Dawley rats on plates coated with poly-L-lysine from Sigma (St. Louis, Mo.; molecular weight 300,000). Hippocampal neurons were maintained in Neurobasal A media from Invitrogen (Carlsbad, Calif.) supplemented with B27 from Invitrogen, 0.5 mM L-glutamine, and […] cytosine-D-arabinofuranoside from Sigma added at 2 days in vitro. Hippocampal neurons were then cultured a further 3-7 days, at which time they were either transfected or treated with various pharmacological reagents as described in (Wayman, Davare et al. 2008).
Neurons were transfected with mRFP-β-actin on day in vitro 6 (DIV6) using LipofectAMINE™ 2000 (Invitrogen) according to the manufacturer's protocol. This protocol yielded the desired 3-5% transfection efficiency thus enabling the visualization of individual neurons. Higher efficiencies obscured the dendritic arbor of individual neurons. Expression of fluorescently tagged actin allowed clear visualization of dendritic spines, as dendritic spines are enriched in actin. On DIV7 the cells were treated with vehicle (H20) or peptides (as described in the text) added to media. On DIV 12 the neurons were fixed (4% paraformaldehyde, 3% sucrose, 60 mM PIPES, 25 mM HEPES, 5 mM EGTA, 1 mM MgCl2, pH 7.4) for 20 min at room temperature and mounted. Slides were dried for at least 20 hours at 4° C. and fluorescent images were obtained with Slidebook 4.2 Digital Microscopy Software driving an Olympus IX81 inverted confocal microscope with a 60× oil immersion lens, NA 1.4 and resolution 0.280 μm Dendritic spine density was measured on primary and secondary dendrites at a distance of at least 150 μm from the soma. Five 50 μm long segments of dendrite from at least 10 neurons per data point were analyzed for each data point reported. Each experiment was repeated at least three times using independent culture preparations. Dendrite length was determined using the National Institutes of Health's Image J 1.41o program (NIH, Bethesda, Md.) and the neurite tracing program Neuron J (Meijering, Jacob et al. 2004) Spines were manually counted.
as §1, with “centimeter)” for “cm)”, “P1-2” for “P1”, “the text or figure legends.” for “(Wayman, Davare et al. 2008).”

CA1 hippocampal neurons = assay: Spinogenesis in organotypic hippocampal slice cultures; type: cell-based, rat; conditions: HGF 10 ng/ml, 48 hours, organotypic slices
Procedure: (§2) Hippocampi from P4 Sprague Dawley rats were cultured as previously described (Wayman, Impey et al. 2006). Briefly, 400 μm slices were cultured on (Milipore, Billerica, Mass.) for 3 days after which they were biolistically transfected with tomato fluorescent protein (TFP) using a Helios Gen Gun (BioRad, Hercules, Calif.), according to the manufacturer's protocol, to visualize dendritic arbors. Following a 24 hour recovery period slices were stimulated with vehicle (H2O), 1 pM Nle1-AngIV or Dihexa for 2 days. Slices were fixed and mounted. Hippocampal CA1 neuronal processes were imaged and measured as described above.
as §2, with “Gene” for “Gen”, “with” for “with vehicle (H2O),”

c-Met receptor = assay: c-Met phosphorylation in acute adult rat hippocampal slices; type: cell-based; conditions: 30 minutes
Excerpt: Adult Sprague-Dawley rats (250 g+) obtained from Harlan Laboratories (Ca, USA) were anesthetized with isofluorane (Vet One™, MWI, Meridian, Id., USA) and decapitated. The brain was rapidly removed and placed into ice-chilled artificial cerebrospinal fluid (aCSF) for approximately 30 s. Both hemispheres were separated by a mid-saggital cut and both hippocampi removed. Slices were sectioned cross- and length-wise (400 μm) to ensure penetrability of the drug, using a McIlwain tissue chopper (Brinkmann, Gomshall, UK) and transferred to a gassed (95% O2/5% CO2) incubation chamber containing aCSF for 90 minutes at room temperature. […]
Protein concentration of the samples was quantified using the BCA method (Pierce, Rockford, Ill.) following the manufacturers protocol. […]

- c-Met phosphorylation vs control (aCSF) slices (c-Met receptor; HGF 100 ng/ml (saturating)): increased c-Met phosphorylation
Substance: HGF: carrier free adult recombinant Hepatocyte Growth Factor (R and D Systems)
- mean spine numbers (hippocampal neurons; HGF 2.5 ng/ml): 18.6 and 16.5
- mean spine numbers (hippocampal neurons; HGF 5 ng/ml): 24.7
- mean spine numbers per 50 μm dendrite length (hippocampal neurons; HGF 10 ng/ml): 27.5 and 33 and 29.3
- mean spine numbers (hippocampal neurons; HGF 20 ng/ml): 27.0
- number of spines per 50 μm dendrite length, CA1 neurons (CA1 hippocampal neurons): 18.5
- c-Met phosphorylation vs control (aCSF) slices (c-Met receptor; HGF 50 ng/ml (non-saturating)): not statistically different from control treated slices

Reference: patent US8598118B2, “Hepatocyte growth factor mimics as therapeutic agents” (Washington State University, priority 2011, dated 2013)
